Tested on: petunia P6.1 gene (and endogenous tobacco T2.1 gene)
Test: RNAse protection analysis of petunia P6.1 gene expression in transgenic tobacco roots and callus
Type: in vivo, tobacco (SR1)
Experimental: Tobacco (SR1) was used as the recipient for transformation. In vitro grown leaf material was sliced into strips using a scalpel. The strips were dipped into Agrobacterium tumefaciens containing the construct P627 (bacterial concentration was 0.2 A550). Leaf pieces were placed on media containing MS major salts, MS minor salts, B5 vitamins, MS iron, 3% sucrose, 0.1 μg/l NAA, […], 0.7% TC agar, pH 5.8 and incubated for 2-3 days under growlights. Leaf material was removed and washed by placing in liquid culture medium containing […] and rotating gently for 3-4 hours. The leaf pieces were then placed on medium containing 100 μg/l carbinicillin and 300 mg/l kanamycin and transferred every 2 weeks. Shoots appeared after 2-8 weeks and were transferred to rooting medium (0.5× MS major salts, MS minor salts, iron, 1% sucrose, 0.8% agar, and 2 μM indolebutyric acid). Eight independent transformed plants were regenerated. […]
The inducibility of the P6.1 gene was also examined in callus tissue derived from transformed tobacco plants. […] The inducibility of both the introduced petunia P6 gene and the endogenous tobacco T2.1 gene by N-(aminocarbonyl)-2-chlorobenzanesulfonamide treatment was evaluated using the RNAse protection analysis as described above. […]

NC(=O)NS(=O)(=O)c1ccccc1Cl
expression of petunia P6 gene and endogenous tobacco T2.1 gene in callus (RNAse protection) (callus from transformed tobacco, 100 mg/l, 6 and 20 hours): strong expression of both genes was observed | inducible expression of the transferred petunia P6.1 gene in roots (RNAse protection) (transgenic tobacco (P627), hydroponic 200 mg/l, six hours): All eight transformants demonstrated inducible expression

Reference: US5608143A, “External regulation of gene expression” (E. I. Du Pont de Nemours and Company, priority 1994, dated 1997)
